Results: paper PMC9851200, “Multiparameter phenotypic screening for endogenous TFEB and TFE3 translocation identifies novel chemical series modulating lysosome function” (Autophagy, 2022)

Columns and labels:
Format in all cases: binding
[1] = biological target: kinases (KINOMEscan panel) (Homo sapiens, UniProt O75116); settings: kinase ROCK2; NEW KINOMEscan
[2] = biological target: kinases (KINOMEscan panel) (Homo sapiens, UniProt Q9H422); settings: kinase HIPK3; NEW KINOMEscan
[3] = biological target: kinases (KINOMEscan panel) (Homo sapiens, UniProt P09619); settings: NEW KINOMEscan
[4] = biological target: kinases (KINOMEscan panel) (Homo sapiens, UniProt Q96J92); settings: WNK4; NEW KINOMEscan
[5] = biological target: kinases (KINOMEscan panel) (Homo sapiens, UniProt O96017); settings: kinase CHEK2; NEW KINOMEscan
[6] = biological target: T1, kinases (KINOMEscan panel) (Homo sapiens, UniProt O14965); settings: NEW KINOMEscan
T1 sequence (O14965 1-403): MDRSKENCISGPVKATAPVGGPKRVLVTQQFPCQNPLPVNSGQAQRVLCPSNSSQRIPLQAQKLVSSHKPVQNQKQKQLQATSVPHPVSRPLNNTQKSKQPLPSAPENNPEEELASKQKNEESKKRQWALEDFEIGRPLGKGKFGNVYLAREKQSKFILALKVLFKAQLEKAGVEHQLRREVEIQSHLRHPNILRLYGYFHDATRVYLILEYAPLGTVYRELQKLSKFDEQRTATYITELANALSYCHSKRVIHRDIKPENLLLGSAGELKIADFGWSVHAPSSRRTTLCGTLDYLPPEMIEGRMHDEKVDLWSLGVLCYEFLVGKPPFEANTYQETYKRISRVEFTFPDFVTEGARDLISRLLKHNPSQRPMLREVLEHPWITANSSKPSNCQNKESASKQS

[7] = biological target: kinases (KINOMEscan panel) (Homo sapiens, UniProt Q9BVS4); settings: RIOK2; NEW KINOMEscan
[8] = biological target: kinases (KINOMEscan panel) (Homo sapiens, UniProt Q00526); settings: CDK3; NEW KINOMEscan
[9] = biological target: kinases (KINOMEscan panel) (Homo sapiens, UniProt P36888, K663Q); settings: kinase FLT3(K663Q); NEW KINOMEscan
[10] = biological target: T2, kinases (KINOMEscan panel) (Homo sapiens, UniProt Q9Y616); settings: IRAK3; NEW KINOMEscan
T2 sequence (Q9Y616 1-596): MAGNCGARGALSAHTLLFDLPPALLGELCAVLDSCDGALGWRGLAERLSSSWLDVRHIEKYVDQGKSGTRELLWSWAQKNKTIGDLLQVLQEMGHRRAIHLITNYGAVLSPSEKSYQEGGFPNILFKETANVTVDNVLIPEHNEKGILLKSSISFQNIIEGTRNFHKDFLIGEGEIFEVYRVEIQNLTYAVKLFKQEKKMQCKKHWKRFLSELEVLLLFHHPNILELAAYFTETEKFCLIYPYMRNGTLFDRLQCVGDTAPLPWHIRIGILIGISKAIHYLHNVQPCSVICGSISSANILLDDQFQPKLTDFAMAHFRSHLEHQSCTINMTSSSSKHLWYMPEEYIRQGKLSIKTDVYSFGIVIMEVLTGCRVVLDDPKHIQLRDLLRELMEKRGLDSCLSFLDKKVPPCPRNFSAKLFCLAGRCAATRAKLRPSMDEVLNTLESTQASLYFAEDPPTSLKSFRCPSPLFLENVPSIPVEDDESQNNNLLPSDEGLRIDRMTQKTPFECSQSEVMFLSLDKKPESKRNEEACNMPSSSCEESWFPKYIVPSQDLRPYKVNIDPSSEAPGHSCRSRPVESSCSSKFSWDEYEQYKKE

[11] = biological target: kinases (KINOMEscan panel) (Homo sapiens, UniProt Q8NI60); settings: COQ8A; NEW KINOMEscan
[12] = biological target: T3, kinases (KINOMEscan panel) (Homo sapiens, UniProt Q9UHD2); settings: TBK1; NEW KINOMEscan
T3 sequence (Q9UHD2 1-729): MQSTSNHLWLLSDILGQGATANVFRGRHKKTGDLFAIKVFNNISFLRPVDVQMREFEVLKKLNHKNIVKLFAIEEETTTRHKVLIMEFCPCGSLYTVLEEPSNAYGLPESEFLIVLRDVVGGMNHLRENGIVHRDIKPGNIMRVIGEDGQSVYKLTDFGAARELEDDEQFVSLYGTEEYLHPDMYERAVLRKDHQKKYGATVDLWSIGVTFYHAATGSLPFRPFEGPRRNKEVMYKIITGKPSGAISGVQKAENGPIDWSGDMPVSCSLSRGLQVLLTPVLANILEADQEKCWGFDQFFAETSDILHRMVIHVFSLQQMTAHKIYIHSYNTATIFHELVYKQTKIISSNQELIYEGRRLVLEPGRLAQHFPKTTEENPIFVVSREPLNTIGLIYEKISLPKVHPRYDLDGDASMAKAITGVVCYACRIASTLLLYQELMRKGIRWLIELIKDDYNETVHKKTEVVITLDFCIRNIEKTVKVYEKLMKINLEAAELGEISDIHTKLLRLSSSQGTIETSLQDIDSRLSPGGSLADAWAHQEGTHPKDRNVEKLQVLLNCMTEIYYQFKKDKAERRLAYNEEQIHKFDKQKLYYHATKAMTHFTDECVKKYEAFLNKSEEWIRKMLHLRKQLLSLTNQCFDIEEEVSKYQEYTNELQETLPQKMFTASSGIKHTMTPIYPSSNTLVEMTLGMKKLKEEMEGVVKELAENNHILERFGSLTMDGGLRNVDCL

[13] = biological target: kinases (KINOMEscan panel) (Homo sapiens, UniProt Q86V86); settings: kinase PIM3; NEW KINOMEscan

Chain of kinases (KINOMEscan panel) (Homo sapiens, UniProt Q8NI60) (Q8NI60 163-647): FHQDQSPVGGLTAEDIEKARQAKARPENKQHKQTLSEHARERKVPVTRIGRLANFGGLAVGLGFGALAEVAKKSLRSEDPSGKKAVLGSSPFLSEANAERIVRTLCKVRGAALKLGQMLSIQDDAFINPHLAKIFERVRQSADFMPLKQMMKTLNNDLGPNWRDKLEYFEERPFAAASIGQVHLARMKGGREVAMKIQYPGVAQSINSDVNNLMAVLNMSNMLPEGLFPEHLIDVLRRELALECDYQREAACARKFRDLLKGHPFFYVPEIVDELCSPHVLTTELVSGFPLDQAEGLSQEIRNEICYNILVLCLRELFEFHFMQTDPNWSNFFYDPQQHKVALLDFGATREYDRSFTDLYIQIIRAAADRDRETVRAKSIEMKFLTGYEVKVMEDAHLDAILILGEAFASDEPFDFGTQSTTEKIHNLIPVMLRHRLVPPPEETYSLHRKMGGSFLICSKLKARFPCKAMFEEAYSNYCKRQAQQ
Chain of kinases (KINOMEscan panel) (Homo sapiens, UniProt O96017) (O96017 whole entry): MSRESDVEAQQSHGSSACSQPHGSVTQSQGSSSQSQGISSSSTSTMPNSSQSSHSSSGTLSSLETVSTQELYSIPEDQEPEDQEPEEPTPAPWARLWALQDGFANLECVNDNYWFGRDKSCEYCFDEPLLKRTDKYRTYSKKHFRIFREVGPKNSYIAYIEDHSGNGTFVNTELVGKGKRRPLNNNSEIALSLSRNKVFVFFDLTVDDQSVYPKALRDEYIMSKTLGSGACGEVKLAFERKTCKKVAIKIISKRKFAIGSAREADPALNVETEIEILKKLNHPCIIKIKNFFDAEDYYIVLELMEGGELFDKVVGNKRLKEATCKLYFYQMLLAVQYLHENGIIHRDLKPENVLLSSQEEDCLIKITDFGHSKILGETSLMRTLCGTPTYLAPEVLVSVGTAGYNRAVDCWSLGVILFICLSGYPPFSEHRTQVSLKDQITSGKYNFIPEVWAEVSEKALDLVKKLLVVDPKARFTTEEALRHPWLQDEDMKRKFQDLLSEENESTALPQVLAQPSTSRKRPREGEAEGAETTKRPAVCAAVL
Chain of kinases (KINOMEscan panel) (Homo sapiens, UniProt O75116) (O75116 whole entry): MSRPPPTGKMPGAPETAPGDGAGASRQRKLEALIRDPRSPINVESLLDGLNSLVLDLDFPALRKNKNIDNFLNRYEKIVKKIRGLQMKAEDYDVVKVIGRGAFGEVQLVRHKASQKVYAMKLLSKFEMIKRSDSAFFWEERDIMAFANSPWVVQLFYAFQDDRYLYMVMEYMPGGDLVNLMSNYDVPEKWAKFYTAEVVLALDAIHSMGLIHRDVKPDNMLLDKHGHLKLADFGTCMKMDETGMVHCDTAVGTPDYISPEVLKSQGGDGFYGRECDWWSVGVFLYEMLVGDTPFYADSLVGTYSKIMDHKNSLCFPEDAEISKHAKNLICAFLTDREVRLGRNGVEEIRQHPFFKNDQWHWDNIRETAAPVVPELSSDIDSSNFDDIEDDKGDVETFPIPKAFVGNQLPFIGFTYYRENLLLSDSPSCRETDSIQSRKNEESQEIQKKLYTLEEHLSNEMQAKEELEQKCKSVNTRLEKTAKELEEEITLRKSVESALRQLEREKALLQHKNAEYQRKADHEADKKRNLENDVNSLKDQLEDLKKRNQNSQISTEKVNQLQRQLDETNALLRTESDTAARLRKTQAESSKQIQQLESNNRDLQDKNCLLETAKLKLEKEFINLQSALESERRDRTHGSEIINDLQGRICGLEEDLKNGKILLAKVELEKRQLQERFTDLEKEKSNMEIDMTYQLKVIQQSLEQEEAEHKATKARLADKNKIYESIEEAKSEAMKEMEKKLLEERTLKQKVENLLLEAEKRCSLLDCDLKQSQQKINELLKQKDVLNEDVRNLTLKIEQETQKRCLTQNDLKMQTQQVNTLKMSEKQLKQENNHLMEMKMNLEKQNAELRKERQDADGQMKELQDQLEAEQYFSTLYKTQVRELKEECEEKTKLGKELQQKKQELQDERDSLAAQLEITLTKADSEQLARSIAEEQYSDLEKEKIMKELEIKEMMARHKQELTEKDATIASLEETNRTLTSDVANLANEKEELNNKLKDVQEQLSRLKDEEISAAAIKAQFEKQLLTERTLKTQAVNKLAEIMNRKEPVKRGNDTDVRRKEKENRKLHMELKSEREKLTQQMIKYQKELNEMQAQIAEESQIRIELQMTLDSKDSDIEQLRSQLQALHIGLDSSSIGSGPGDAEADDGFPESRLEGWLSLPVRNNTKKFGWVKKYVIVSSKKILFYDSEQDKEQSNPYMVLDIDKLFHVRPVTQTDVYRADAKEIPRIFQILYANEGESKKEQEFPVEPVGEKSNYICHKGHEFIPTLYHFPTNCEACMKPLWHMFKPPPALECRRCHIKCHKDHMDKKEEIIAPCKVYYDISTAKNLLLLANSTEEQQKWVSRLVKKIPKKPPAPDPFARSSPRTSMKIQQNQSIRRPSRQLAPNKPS
Chain of kinases (KINOMEscan panel) (Homo sapiens, UniProt Q9H422) (Q9H422 whole entry): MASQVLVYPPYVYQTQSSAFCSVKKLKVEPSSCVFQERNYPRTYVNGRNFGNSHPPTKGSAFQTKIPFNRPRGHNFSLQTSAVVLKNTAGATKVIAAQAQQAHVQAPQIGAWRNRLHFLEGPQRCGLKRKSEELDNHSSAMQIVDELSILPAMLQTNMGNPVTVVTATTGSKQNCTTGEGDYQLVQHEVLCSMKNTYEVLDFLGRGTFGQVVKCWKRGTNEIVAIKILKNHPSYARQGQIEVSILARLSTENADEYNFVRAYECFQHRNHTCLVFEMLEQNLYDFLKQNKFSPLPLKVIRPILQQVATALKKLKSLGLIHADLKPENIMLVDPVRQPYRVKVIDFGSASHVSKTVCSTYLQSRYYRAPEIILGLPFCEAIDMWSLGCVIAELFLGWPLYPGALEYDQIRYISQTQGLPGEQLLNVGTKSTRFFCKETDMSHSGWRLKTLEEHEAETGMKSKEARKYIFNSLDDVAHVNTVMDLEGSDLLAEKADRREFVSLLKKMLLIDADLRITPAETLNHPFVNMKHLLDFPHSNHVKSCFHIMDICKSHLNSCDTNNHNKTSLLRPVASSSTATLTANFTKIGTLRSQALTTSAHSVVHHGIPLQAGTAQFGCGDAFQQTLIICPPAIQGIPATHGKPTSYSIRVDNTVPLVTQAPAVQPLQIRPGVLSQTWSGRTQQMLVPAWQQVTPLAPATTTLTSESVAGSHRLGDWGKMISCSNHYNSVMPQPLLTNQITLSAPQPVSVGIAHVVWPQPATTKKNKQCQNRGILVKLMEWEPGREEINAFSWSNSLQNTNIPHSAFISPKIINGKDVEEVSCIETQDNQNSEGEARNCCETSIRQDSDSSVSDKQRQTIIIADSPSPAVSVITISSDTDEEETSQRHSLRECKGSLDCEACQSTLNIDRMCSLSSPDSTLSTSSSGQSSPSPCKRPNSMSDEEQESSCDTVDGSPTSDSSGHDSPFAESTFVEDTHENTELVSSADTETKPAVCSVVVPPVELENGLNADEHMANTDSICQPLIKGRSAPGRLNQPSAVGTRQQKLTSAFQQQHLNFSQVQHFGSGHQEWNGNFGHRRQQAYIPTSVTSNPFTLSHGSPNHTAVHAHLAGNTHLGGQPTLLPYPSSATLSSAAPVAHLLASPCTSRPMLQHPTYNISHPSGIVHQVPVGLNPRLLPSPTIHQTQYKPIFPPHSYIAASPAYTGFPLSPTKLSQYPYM
Chain of kinases (KINOMEscan panel) (Homo sapiens, UniProt P09619) (P09619 33-1106): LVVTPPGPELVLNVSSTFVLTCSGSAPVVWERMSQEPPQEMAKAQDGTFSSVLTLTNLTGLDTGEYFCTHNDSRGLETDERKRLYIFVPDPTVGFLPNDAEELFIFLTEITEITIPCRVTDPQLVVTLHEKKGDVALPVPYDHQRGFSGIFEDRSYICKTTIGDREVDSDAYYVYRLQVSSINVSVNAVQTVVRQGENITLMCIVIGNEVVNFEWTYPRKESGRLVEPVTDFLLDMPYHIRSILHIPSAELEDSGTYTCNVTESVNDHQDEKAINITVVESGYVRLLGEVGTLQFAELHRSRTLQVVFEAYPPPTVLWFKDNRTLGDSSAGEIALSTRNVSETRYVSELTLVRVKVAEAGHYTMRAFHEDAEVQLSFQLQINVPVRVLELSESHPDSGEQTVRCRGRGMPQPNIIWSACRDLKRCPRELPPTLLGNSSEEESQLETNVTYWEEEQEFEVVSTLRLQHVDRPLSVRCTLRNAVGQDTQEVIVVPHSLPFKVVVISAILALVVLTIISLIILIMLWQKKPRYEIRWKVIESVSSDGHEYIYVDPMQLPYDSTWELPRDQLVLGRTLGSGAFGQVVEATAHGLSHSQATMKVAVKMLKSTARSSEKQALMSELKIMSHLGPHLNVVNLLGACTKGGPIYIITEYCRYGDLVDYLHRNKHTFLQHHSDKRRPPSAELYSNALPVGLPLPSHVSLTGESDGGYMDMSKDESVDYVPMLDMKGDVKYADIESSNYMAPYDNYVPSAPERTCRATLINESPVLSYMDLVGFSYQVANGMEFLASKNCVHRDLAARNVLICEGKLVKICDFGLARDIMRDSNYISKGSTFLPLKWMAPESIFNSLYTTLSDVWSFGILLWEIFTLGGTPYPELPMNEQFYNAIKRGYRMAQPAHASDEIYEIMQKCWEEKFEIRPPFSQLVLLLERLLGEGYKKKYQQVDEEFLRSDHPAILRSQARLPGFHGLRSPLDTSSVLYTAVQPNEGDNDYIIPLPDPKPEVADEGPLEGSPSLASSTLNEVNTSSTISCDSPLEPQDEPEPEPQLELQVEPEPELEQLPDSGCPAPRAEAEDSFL

| SMILES | KINOMEscan ROCK2 [1] | KINOMEscan HIPK3 [2] | KINOMEscan PDGFRB [3] | KINOMEscan WNK4 [4] | KINOMEscan CHEK2 [5] | KINOMEscan AURKA [6] | KINOMEscan RIOK2 [7] | KINOMEscan CDK3 [8] | KINOMEscan FLT3(K663Q) [9] | KINOMEscan IRAK3 [10] | KINOMEscan COQ8A [11] | KINOMEscan TBK1 [12] | KINOMEscan PIM3 [13] |
| --- | --- | --- | --- | --- | --- | --- | --- | --- | --- | --- | --- | --- | --- |
| Cc1cccc(-c2nc(Nc3ccc4nn(C)cc4c3)c3ccccc3n2)n1 [NK167] | 0 | 0 | 19 | 0 | 0 | 3 | 3 | 0 | 0 | 0 | 5 | 44 | 0 |
| Cc1cccc(-c2nc(N(C)c3ccc4ncsc4c3)c3ccccc3n2)n1 [NK-161] | 0 | 0 | 21 | 0 | 0 | 22 | 3 | 0 | 0 | 7 | 1 | 25 | 0 |
